One block for each molecule: values may come before it.
Key:
Design in all cases: host or cells: CHO cells, stably transfected
M4 muscarinic receptor = target: T1, M4 muscarinic receptor (Homo sapiens, UniProt P08173); assay: inhibition of forskolin-stimulated cAMP, M4 CHO cells (M4Gi); assay type: cell-based
T1 sequence (P08173 1-479): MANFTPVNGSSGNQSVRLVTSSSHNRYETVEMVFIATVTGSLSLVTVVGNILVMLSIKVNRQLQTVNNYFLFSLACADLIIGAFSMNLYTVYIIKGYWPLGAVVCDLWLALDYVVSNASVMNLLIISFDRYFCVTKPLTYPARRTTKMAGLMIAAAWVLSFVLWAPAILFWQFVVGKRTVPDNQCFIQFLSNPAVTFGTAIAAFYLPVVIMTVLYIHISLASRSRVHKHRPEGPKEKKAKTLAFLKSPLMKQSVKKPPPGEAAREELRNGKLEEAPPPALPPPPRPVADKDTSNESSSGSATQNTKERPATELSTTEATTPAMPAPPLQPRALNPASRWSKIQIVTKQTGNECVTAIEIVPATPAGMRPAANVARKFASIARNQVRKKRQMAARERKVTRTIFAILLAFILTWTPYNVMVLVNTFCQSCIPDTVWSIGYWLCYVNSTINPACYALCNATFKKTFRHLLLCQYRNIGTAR

M1 muscarinic receptor [1] = target: T2, M1 muscarinic receptor (Homo sapiens, UniProt P11229); assay: accumulation of inositol phosphates IPX, M1 CHO cells (M1Gq); assay type: cell-based; details: M1 (↑IPX), preferential response
T2 sequence (P11229 1-460): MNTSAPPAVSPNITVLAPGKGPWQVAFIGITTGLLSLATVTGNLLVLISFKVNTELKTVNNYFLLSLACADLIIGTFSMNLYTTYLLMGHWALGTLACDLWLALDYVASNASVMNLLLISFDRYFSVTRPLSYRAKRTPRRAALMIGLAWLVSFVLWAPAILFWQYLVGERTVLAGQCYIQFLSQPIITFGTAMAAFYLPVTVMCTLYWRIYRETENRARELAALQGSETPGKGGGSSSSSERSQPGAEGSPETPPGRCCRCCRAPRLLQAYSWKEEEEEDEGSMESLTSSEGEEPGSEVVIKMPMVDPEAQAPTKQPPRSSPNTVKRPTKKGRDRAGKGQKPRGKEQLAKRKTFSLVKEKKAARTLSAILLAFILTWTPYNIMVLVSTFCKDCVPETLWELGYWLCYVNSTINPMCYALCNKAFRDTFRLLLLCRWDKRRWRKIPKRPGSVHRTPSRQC

M1 muscarinic receptor [2] = target: T2, M1 muscarinic receptor; assay: [3H]NMS competition binding, M1 CHO membranes; details: competition with 1 nM [3H]NMS; read-out: Inhibition constants (Ki) as negative logarithms, M1 (converted)
M2 muscarinic receptor [3] = target: T3, M2 muscarinic receptor (Homo sapiens, UniProt P08172); assay: [3H]NMS competition binding, M2 CHO membranes; details: competition with 1 nM [3H]NMS; read-out: Inhibition constants (Ki) as negative logarithms, M2 (converted)
T3 sequence (P08172 1-466): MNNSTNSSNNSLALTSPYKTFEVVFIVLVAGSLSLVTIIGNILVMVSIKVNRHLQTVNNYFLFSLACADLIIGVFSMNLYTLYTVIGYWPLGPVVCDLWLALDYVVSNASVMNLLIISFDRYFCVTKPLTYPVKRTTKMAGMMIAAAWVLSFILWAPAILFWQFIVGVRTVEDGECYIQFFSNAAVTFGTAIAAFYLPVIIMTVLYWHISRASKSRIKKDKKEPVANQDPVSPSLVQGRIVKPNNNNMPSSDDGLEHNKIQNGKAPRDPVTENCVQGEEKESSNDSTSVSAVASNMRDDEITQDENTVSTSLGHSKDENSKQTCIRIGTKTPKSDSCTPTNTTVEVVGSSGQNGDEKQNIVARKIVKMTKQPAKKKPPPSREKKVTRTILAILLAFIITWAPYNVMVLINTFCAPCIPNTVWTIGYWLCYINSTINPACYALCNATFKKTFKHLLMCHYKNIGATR

M2 muscarinic receptor [4] = target: T3, M2 muscarinic receptor; assay: inhibition of forskolin-stimulated cAMP, M2 CHO cells (M2Gi); assay type: cell-based
M3 muscarinic receptor = M3 muscarinic receptor (Homo sapiens, UniProt P20309); assay: accumulation of IPX, M3 CHO cells (M3Gq); assay type: cell-based; details: M3 (↑IPX), preferential response
[5] = M4 (↓cAMP), preferential response, Table 7, operational efficacy
[6] = M4 (↓cAMP), preferential response, to carbachol, Tables 2, 3, 7
[7] = Table 7, operational model, read-out: pKA (converted)
[8] = Table 7, read-out: pEC50 (converted)
[9] = relative to carbachol, Tables 2, 3, 7
[10] = M2 (↓cAMP), preferential response, to carbachol, Tables 2, 3, 7

Chain of M3 muscarinic receptor (P20309 whole entry): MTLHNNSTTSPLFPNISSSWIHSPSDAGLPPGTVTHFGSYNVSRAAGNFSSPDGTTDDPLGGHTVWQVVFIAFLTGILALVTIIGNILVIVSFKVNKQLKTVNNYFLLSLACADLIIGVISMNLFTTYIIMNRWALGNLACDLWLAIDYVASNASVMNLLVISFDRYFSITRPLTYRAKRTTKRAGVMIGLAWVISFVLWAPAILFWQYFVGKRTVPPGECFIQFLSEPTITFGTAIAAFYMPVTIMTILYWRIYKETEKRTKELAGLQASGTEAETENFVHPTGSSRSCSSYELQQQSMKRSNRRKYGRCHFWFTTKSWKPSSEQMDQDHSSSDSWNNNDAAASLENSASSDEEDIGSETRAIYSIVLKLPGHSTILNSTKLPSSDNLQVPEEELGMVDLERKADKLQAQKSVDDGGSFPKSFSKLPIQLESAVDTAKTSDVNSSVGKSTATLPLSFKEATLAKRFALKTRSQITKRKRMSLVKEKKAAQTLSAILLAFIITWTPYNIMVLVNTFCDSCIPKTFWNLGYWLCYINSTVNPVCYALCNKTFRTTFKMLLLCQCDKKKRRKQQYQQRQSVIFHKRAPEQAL

Emax (M4 muscarinic receptor; CHO, M4 (↓cAMP), preferential response, Table 7, read-out: E′MAX): 13 ± 1%
τ (M4 muscarinic receptor; [5]): 0.38 ± 0.04
Kd (M4 muscarinic receptor; M4 (↓cAMP), preferential response, Table 7, operational model, read-out: pKA (converted)): 2.51 µM
EC50 (M4 muscarinic receptor; M4 (↓cAMP), preferential response, Table 7, read-out: pEC50 (converted)): 2.14 µM
RAi (M4 muscarinic receptor; M4 (↓cAMP), preferential response, relative to carbachol, Tables 2, 3, 7): 0.0041 ± 0.005
Δlog(τ/KA) (M4 muscarinic receptor; [6]): 2.13 ± 0.12
E′MAX (M1 muscarinic receptor [1]; Table 7): 2.1 ± 0.2 fold over basal
τ (M1 muscarinic receptor [1]; Table 7, operational efficacy): 0.03 ± 0.01
Kd (M1 muscarinic receptor [1]; [7]): 3.98 µM
EC50 (M1 muscarinic receptor [1]; [8]): 3.47 µM
RAi (M1 muscarinic receptor [1]; [9]): 0.0024 ± 0.0002
Δlog(τ/KA) (M1 muscarinic receptor [1]; to carbachol, Tables 2, 3, 7): 2.62 ± 0.36
Ki (M1 muscarinic receptor [2]): 7.59 µM
Ki (M2 muscarinic receptor [3]): 10 µM
Emax (M2 muscarinic receptor [4]; CHO, M2 (↓cAMP), preferential response, Table 7, read-out: E′MAX): 24 ± 1%
τ (M2 muscarinic receptor [4]; M2 (↓cAMP), preferential response, Table 7, operational efficacy): 0.38 ± 0.04
Kd (M2 muscarinic receptor [4]; M2 (↓cAMP), preferential response, Table 7, operational model, read-out: pKA (converted)): 3.16 µM
EC50 (M2 muscarinic receptor [4]; M2 (↓cAMP), preferential response, Table 7, read-out: pEC50 (converted)): 2.19 µM
RAi (M2 muscarinic receptor [4]; M2 (↓cAMP), preferential response, relative to carbachol, Tables 2, 3, 7): 0.0070 ± 0.0006
Δlog(τ/KA) (M2 muscarinic receptor [4]; [10]): 2.02 ± 0.22
E′MAX (M3 muscarinic receptor; Table 7): 1.8 ± 0.1 fold over basal
τ (M3 muscarinic receptor; Table 7, operational efficacy): 0.03 ± 0.01
Kd (M3 muscarinic receptor; [7]): 3.98 µM
EC50 (M3 muscarinic receptor; [8]): 5.01 µM
RAi (M3 muscarinic receptor; [9]): 0.0029 ± 0.0004
Δlog(τ/KA) (M3 muscarinic receptor; to carbachol, Tables 2, 3, 7): 2.53 ± 0.33
SMILES: Brc1ccc(CN2CC=CCC2)s1.Cl [Compound 6C, 1-[(5-bromothiophen-2-yl)methyl]-1,2,3,6-tetrahydropyridin-1-ium chloride]

SMILES: C[N+](C)(C)CCOC(N)=O [carbachol, reference compound]
E′MAX (M4 muscarinic receptor; M4 (↓cAMP), preferential response, Table 7): 55 ± 2 % inhibition
τ (M4 muscarinic receptor; [5]): 1.41 ± 0.08
Δlog(τ/KA) (M4 muscarinic receptor; [6]): 0
E′MAX (M4 muscarinic receptor; M4Gi (↓cAMP), Table 8): 55 ± 2 % inhibition
τ (M4 muscarinic receptor; M4Gi (↓cAMP), Table 8): 1.4 ± 0.1
Δlog(τ/KA) (M4 muscarinic receptor; M4Gi (↓cAMP), Table 8, to carbachol): 0
E′MAX (M2 muscarinic receptor [4]; M2 (↓cAMP), preferential response, Table 7): 44 ± 1 % inhibition
Δlog(τ/KA) (M2 muscarinic receptor [4]; [10]): 0
E′MAX (M2 muscarinic receptor [4]; M2Gi (↓cAMP), Table 8): 44 ± 1 % inhibition
Δlog(τ/KA) (M2 muscarinic receptor [4]; M2Gi (↓cAMP), Table 8, to carbachol): 0

Source: patent publication US11591323B2, “Muscarinic agonists as non-steroidal and non-opioid analgesics and methods of use thereof” (Barry University, priority 2019, dated 2023)
